# Measured values reported in patent US20260184691A1, “INHIBITORS AND DEGRADERS OF PIP4K PROTEIN” (Larkspur Biosciences, Inc., priority 2022, published 2026).
# Molecular target: T1, endogenous PIP4K2C C-terminally tagged with HiBiT peptide in MOLT-4 cells (Homo sapiens, UniProt Q8TBX8)
# T1 construct: to C-terminally tag endogenous PIP4K2C with HiBiT peptide; host or cells: MOLT-4 (CRISPR-Cas9 knock-in clone)
# T1 sequence (Q8TBX8 1-421): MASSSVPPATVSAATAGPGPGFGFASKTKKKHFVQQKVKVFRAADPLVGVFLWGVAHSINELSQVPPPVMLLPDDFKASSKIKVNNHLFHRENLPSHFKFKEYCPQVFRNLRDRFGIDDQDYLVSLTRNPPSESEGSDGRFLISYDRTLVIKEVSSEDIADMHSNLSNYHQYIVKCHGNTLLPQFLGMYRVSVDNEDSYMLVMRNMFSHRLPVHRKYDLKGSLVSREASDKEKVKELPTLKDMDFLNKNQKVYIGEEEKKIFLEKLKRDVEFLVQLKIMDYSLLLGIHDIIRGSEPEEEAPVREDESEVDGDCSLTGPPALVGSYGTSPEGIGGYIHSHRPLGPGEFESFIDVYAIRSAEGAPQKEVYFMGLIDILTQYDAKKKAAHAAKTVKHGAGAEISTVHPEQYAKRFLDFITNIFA
# Experiment: HiBiT PIP4K2C degradation assay in MOLT-4 cells
# Format: cell-based
# Settings: 24 hours, 10-point dose response, top concentration 10 micromolar, read-out: HiBIT-degradation MOLT4 PIP4k2C 24 hours DC50
# Summary of the method: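 Cells bearing C-terminal HiBiT knock-in were exposed to a 10-point, 3-fold dilution series (top 10 micromolar, duplicate) for 24 h at 37C, 5% CO2. Remaining tagged protein read by lytic HiBiT luminescence; DC50 from Hill-equation fit.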
row,Structure (SMILES),DC50 [nM]
1,"O=C1CCC(N2Cc3cc(OC4CCN(CC(=O)N5CCC6(CC5)CCN(c5cncc(Nc7ncc(Cl)c(-c8cccc(C9CC9)c8)n7)c5)C6=O)CC4)ccc3C2=O)C(=O)N1 (stereo not drawn) [Compound 205, 3-[5-[[1-[2-[2-[5-[[5-chloro-4-(3-cyclopropylphenyl)pyrimidin-2-yl]amino]-3-pyridyl]-1-oxo-2,8-diazaspiro[4.5]decan-8-yl]-2-oxo-ethyl]-4-piperidyl]oxy]-1-oxo-isoindolin-2-yl]piperidine-2,6-dione]",< 500
2,"O=C1CCC(Nc2ccc(C3CCN(CC(=O)N4CCC5(CC4)CCN(c4cncc(Nc6ncc(Cl)c(N7CCC[C@H](O)C7)n6)c4)C5=O)CC3)cc2)C(=O)N1 (stereo partly drawn) [Compound 169, 3-((4-(1-(2-(2-(5-((5-chloro-4-((S)-3-hydroxypiperidin-1-yl)pyrimidin-2-yl)amino)pyridin-3-yl)-1-oxo-2,8-diazaspiro[4.5]decan-8-yl)-2-oxoethyl)piperidin-4-yl)phenyl)amino)piperidine-2,6-dione]",< 500
3,"O=C1CCC(N2Cc3cc(C4CCN(C(=O)CN5CCC6(CC5)CCN(c5cncc(Nc7ncc(Cl)c(-c8cccc(C9CC9)c8)n7)c5)C6=O)CC4)ccc3C2=O)C(=O)N1 (stereo not drawn) [Compound 198, 3-(5-(1-(2-(2-(5-((5-chloro-4-(3-cyclopropylphenyl)pyrimidin-2-yl)amino)pyridin-3-yl)-1-oxo-2,8-diazaspiro[4.5]decan-8-yl)acetyl)piperidin-4-yl)-1-oxoisoindolin-2-yl)piperidine-2,6-dione]",< 500
4,"O=C1CCC(N2C(=O)c3ccc(OCCCCC(=O)N4CCC5(CC4)CCN(c4cncc(Nc6ncc(Cl)c(-c7cccc(-c8ccccc8)c7)n6)c4)C5=O)cc3C2=O)C(=O)N1 (stereo not drawn) [Compound 76, 5-((5-(2-(5-((4-([1,1′-biphenyl]-3-yl)-5-chloropyrimidin-2-yl)amino)pyridin-3-yl)-1-oxo-2,8-diazaspiro[4.5]decan-8-yl)-5-oxopentyl)oxy)-2-(2,6-dioxopiperidin-3-yl)isoindoline-1,3-dione]",< 500
5,"O=C(COc1cccc2c1C(=O)N(C1CCC(=O)NC1=O)C2=O)NCCCCCCCC(=O)N1CCC2(CC1)CCN(c1cncc(Nc3ncc(Cl)c(-c4cccc(-c5ccccc5)c4)n3)c1)C2=O (stereo not drawn) [Compound 77, N-(8-(2-(5-((4-([1,1′-biphenyl]-3-yl)-5-chloropyrimidin-2-yl)amino)pyridin-3-yl)-1-oxo-2,8-diazaspiro[4.5]decan-8-yl)-8-oxooctyl)-2-((2-(2,6-dioxopiperidin-3-yl)-1,3-dioxoisoindolin-4-yl)oxy)acetamide]",< 500
6,"O=C1CCC(N2Cc3cc(NCCCCC(=O)N4CCC5(CC4)CCN(c4cncc(Nc6ncc(Cl)c(-c7cccc(-c8ccccc8)c7)n6)c4)C5=O)ccc3C2=O)C(=O)N1 (stereo not drawn) [Compound 84, 3-(5-((5-(2-(5-((4-([1,1′-biphenyl]-3-yl)-5-chloropyrimidin-2-yl)amino)pyridin-3-yl)-1-oxo-2,8-diazaspiro[4.5]decan-8-yl)-5-oxopentyl)amino)-1-oxoisoindolin-2-yl)piperidine-2,6-dione]",< 500
7,"O=C1CCC(Nc2ccc(N3CCC(CC(=O)N4CCC5(CC4)CCN(c4cncc(Nc6ncc(Cl)c(N7CCOC(c8ccccc8)C7)n6)c4)C5=O)CC3)cc2)C(=O)N1 (stereo not drawn) [Compound 181, 3-((4-(4-(2-(2-(5-((5-chloro-4-(2-phenylmorpholino)pyrimidin-2-yl)amino)pyridin-3-yl)-1-oxo-2,8-diazaspiro[4.5]decan-8-yl)-2-oxoethyl)piperidin-1-yl)phenyl)amino)piperidine-2,6-dione]",< 500

# Further lines, results first:
row,DC50 [nM],Structure (SMILES)
1,500 to 1000,"O=C(COc1ccc2c(c1)C(=O)N(C1CCC(=O)NC1=O)C2=O)NCCCCCCCCCC(=O)Nc1cncc(Nc2ncc(Cl)c(-c3cccc(-c4ccccc4)c3)n2)c1 (stereo not drawn) [Compound 59, N-(5-((4-([1,1′-biphenyl]-3-yl)-5-chloropyrimidin-2-yl)amino)pyridin-3-yl)-10-(2-((2-(2,6-dioxopiperidin-3-yl)-1,3-dioxoisoindolin-5-yl)oxy)acetamido)decanamide]"
2,< 500,"O=C1CCC(Nc2ccc(C3CCN(CC(=O)N4CCC5(CC4)CCN(c4cncc(Nc6ncc(Cl)c(-c7cccc(C8CC8)c7)n6)c4)C5=O)CC3)cc2)C(=O)N1 (stereo not drawn) [Compound 206, 3-[4-[1-[2-[2-[5-[[5-chloro-4-(3-cyclopropylphenyl)pyrimidin-2-yl]amino]-3-pyridyl]-1-oxo-2,8-diazaspiro[4.5]decan-8-yl]-2-oxo-ethyl]-4-piperidyl]anilino]piperidine-2,6-dione]"
3,< 500,"O=C1CCC(N2Cc3cc(OCCCCCC(=O)N4CCC5(CC4)CCN(c4cncc(Nc6ncc(Cl)c(-c7cccc(-c8ccccc8)c7)n6)c4)C5=O)ccc3C2=O)C(=O)N1 (stereo not drawn) [Compound 88, 3-(5-((6-(2-(5-((4-([1,1′-biphenyl]-3-yl)-5-chloropyrimidin-2-yl)amino)pyridin-3-yl)-1-oxo-2,8-diazaspiro[4.5]decan-8-yl)-6-oxohexyl)oxy)-1-oxoisoindolin-2-yl)piperidine-2,6-dione]"
4,< 500,"O=C(COc1cccc2c1CN(C1CCC(=O)NC1=O)C2=O)NCCCCCCCCCC(=O)Nc1cncc(Nc2ncc(Cl)c(-c3cccc(-c4ccccc4)c3)n2)c1 (stereo not drawn) [Compound 66, N-(5-((4-([1,1′-biphenyl]-3-yl)-5-chloropyrimidin-2-yl)amino)pyridin-3-yl)-10-(2-((2-(2,6-dioxopiperidin-3-yl)-1-oxoisoindolin-4-yl)oxy)acetamido)decanamide]"
5,< 500,"O=C1CCC(Nc2ccc(N3CCC(CC(=O)N4CCC5(CC4)CCN(c4cncc(Nc6ncc(Cl)c(N7CCC[C@@H](C(F)(F)F)C7)n6)c4)C5=O)CC3)cc2)C(=O)N1 (stereo partly drawn) [Compound 177, 3-((4-(4-(2-(2-(5-((5-chloro-4-((R)-3-(trifluoromethyl)piperidin-1-yl)pyrimidin-2-yl)amino)pyridin-3-yl)-1-oxo-2,8-diazaspiro[4.5]decan-8-yl)-2-oxoethyl)piperidin-1-yl)phenyl)amino)piperidine-2,6-dione]"
6,< 500,"O=C1CCC(N2Cc3cc(NCCCCC(=O)N4CCC5(CC4)CCN(c4cncc(Nc6ncc(Cl)c(-c7cccc(-c8ccccn8)c7)n6)c4)C5=O)ccc3C2=O)C(=O)N1 (stereo not drawn) [Compound 195, 3-(5-((5-(2-(5-((5-chloro-4-(3-(pyridin-2-yl)phenyl)pyrimidin-2-yl)amino)pyridin-3-yl)-1-oxo-2,8-diazaspiro[4.5]decan-8-yl)-5-oxopentyl)amino)-1-oxoisoindolin-2-yl)piperidine-2,6-dione]"
7,< 500,"O=C1CCC(Nc2ccc(C3CCN(CC(=O)N4CCC5(CC4)CCN(c4cncc(Nc6ncc(Cl)c(N7CCOC(c8ccccc8)C7)n6)c4)C5=O)CC3)cc2)C(=O)N1 (stereo not drawn) [Compound 186, 3-[4-[1-[2-[2-[5-[[5-chloro-4-(2-phenylmorpholin-4-yl)pyrimidin-2-yl]amino]-3-pyridyl]-1-oxo-2,8-diazaspiro[4.5]decan-8-yl]-2-oxo-ethyl]-4-piperidyl]anilino]piperidine-2,6-dione]"
8,1000 to 5000,"O=C(CCCCCOc1cccc2c1C(=O)N(C1CCC(=O)NC1=O)C2=O)NCCCCCC(=O)Nc1cncc(Nc2ncc(Cl)c(-c3cccc(-c4ccccc4)c3)n2)c1 (stereo not drawn) [Compound 83, N-(5-((4-([1,1′-biphenyl]-3-yl)-5-chloropyrimidin-2-yl)amino)pyridin-3-yl)-6-(6-((2-(2,6-dioxopiperidin-3-yl)-1,3-dioxoisoindolin-4-yl)oxy)hexanamido)hexanamide]"
